Measured values reported in patent US10858335B2 (Rigel Pharmaceuticals, Inc., priority 2014, dated 2020).

What follows are molecules tested on GDF8 signaling (p-SMAD-3 (Ser423/425)) (assay: AlphaScreen SureFire SMAD3 (p-Ser423/425) assay, GDF8-stimulated cells (GDF pSMAD)). Settings: Mus musculus, MPC-11, MPC11; GDF8-stimulated; p-SMAD3 AlphaScreen; read-out: GDF pSMAD (MPC11) (inhibition of GDF8 signaling).
Format: cell-based
Text: Biological Example 1: AlphaScreen® SureFire® SMAD3 (p-Ser423/425) Assay
The p-SMAD-3 (Ser423/425) SureFire® assay has been designed to measure the phosphorylation of endogenous cellular p-SMAD-3 (Ser423/425) in cell lysates and is a system for the screening of both modulators of receptor activation (e.g. agonists and antagonists) as well as agents acting intracellularly, such as small molecule inhibitors of upstream events. The assay will measure p-SMAD-3 (Ser423/425) activation by either cloned or endogenous receptors, and can be applied to primary cells.
P-SMAD-3 (Ser423/425) SureFire® Assay Protocols
Step A: Preparation of Buffers
1× Lysis buffer: 1 ml of 5× Lysis buffer was diluted with 4 ml of sterile water. After dilution, excess 1× Lysis buffer can be frozen and thawed up to 5 times without loss in activity.
Activation buffer: The buffer was warmed slowly to 37° C. and gently mixed to re-suspend. Activation buffer can be stored at room temperature with no loss in activity.
Reaction buffer: The buffer was kept at 4° C. while in use.
AlphaScreen® Protein A IgG Kit: The kit was stored at 4° C. in the dark.
Reaction buffer+Activation buffer+AlphaScreen® Acceptor beads: Reaction buffer (40 parts), Activation Buffer (10 parts) and Acceptor beads (1 part) were mixed and the mixture was stored at room temperature and used the same day. Mixture was added to 384-well plates; excess mixture was discarded.
Dilution buffer+AlphaScreen® Donor beads: Dilution buffer (20 parts) and Donor beads (1 part) were mixed and the mixture was stored at room temperature and used the same day. Excess mixture was discarded.
Assay control samples: After reconstitution in 250 μl of water, lysates were at −20° C. in single use aliquots.
Step B: Preparation of Samples and Cells
96-well Assay Protocol for 293FT and RMS13 adherent cells can be carried out manually or in high throughput with liquid handling robots.
The cells (80 μL of cells for 96 well plates) were plated in collagen coated tissue culture plates in RPMI or FreeStyle medium (Invitrogen) and incubated overnight. For manual analysis, 6 plates for GDF8, 6 plates for TGFβ, and optionally 6 plates for AlkSca(ALK5 constitutively active) were used.
The compound dilution plates were prepared as follows: 12 μL of DMSO was transferred into first column of 96-well plate, and 16 μL of DMSO was transferred into columns 2-12 of the 96-well plate. 12 μL of compound solution was transferred into first column of the DMSO-containing 96-well plate. Three-fold dilution was performed up to column 10 of the DMSO-containing 96-well plate.
Step C: Treatment and Analysis
The plate containing cells were treated with compounds for about 10 minutes, and then ligand was added. GDF8 or TGFb was added to plates to stimulate. 293FL cells were stimulated for 90 minutes at 37° C.; and RMS13 cells were stimulated for 60 minutes at 37° C. The medium was then removed from the cells, and 1× Lysis Buffer (about 25 μL) was added and the plate was gently agitated on plate shaker for 5-10 minutes.
The lysate (5 μL) was then placed into 384-well shallow plates avoiding the generation of bubbles. To this, the Reaction Buffer+Activation Buffer+AlphaScreen® Acceptor beads mixture (5 μL) was added. The plate was sealed with adhesive cover and shielded from light (e.g., with metal foil), and agitated gently on plate shaker for 2 hours at room temperature.
Dilution buffer+AlphaScreen® Donor beads (2 μL) was then added, and the plate was intubated on the plate shaker for an additional 1½ hours. After completion, the plate was read on Synergy-4 or Enspire plate reader, using AlphaScreen® pSMAD3® settings.
Representative results for inhibition of GDF8 signaling are shown in Table 2(data=GDF pSMAD (MPC11) (μM)): […]

Going from `Cc1cc(-c2ncccc2-c2ccc3ncc(C(=O)NC4CC5CCC(C4)N5C)n3c2)ccc1F` (racemic) [compound 711, rac-6-(2-(4-Fluoro-3-methylphenyl)pyridin-3-yl)-N-(8-methyl-8-azabicyclo[3.2.1]octan-3-yl)imidazo[1,2-a]pyridine-3-carboxamide] to `Cc1cc(-c2ncccc2-c2ccc3ncc(C(=O)NCCCN4CCCC4=O)n3c2)ccc1F` [compound 612, 6-(2-(4-Fluoro-3-methylphenyl)pyridin-3-yl)-N-(3-(2-oxopyrrolidin-1-yl)propyl)imidazo[1,2-a]pyridine-3-carboxamide], the IC50 falls from 9280 nM to 408 nM (23-fold). The second is the more potent here.

First: COc1cc(CNc2cnc(-c3ccc(F)c(C)c3)c(-c3ccc4ncsc4c3)c2)ccc1OCCO [compound 356, 2-(4-(((5-(Benzo[d]thiazol-6-yl)-6-(4-fluoro-3-methylphenyl)pyridin-3-yl)amino)methyl)-2-methoxyphenoxy)ethan-1-ol]
Second: COc1cc(CNc2cnc(-c3ccc(F)c(C)c3)c(-c3ccc4ncsc4c3)c2)cc(OC)c1O [compound 366, 4-(((5-(Benzo[d]thiazol-6-yl)-6-(4-fluoro-3-methylphenyl)pyridin-3-yl)amino)methyl)-2,6-dimethoxyphenol]
The IC50 of the first is 4.3-fold higher: 965 nM for the first, 226 nM for the second. The second is the more potent here.

First: Cc1ccc(F)cc1-c1ncccc1-c1ccc2ncnc(N)c2c1 [compound 466, 6-(2-(5-Fluoro-2-methylphenyl)pyridin-3-yl)quinazolin-4-amine]
Second: Nc1ncnc2ccc(-c3cccnc3-c3cccc(OC(F)(F)F)c3)cc12 [compound 452, 6-(2-(3-(Trifluoromethoxy)phenyl)pyridin-3-yl)quinazolin-4-amine]
The IC50 of the first is 34-fold higher: 7580 nM for the first, 223 nM for the second.

Compared with `Cc1cc(-c2ncccc2-c2ccc3cnc(C(=O)O)n3c2)ccc1F` [compound 257, 6-(2-(4-Fluoro-3-methylphenyl)pyridin-3-yl)imidazo[1,5-a]pyridine-3-carboxylic acid], `Cc1cc(-c2ncccc2-c2ccc3[nH]cnc(=O)c3c2)ccc1F` [compound 346, 6-(2-(4-Fluoro-3-methylphenyl)pyridin-3-yl)quinazolin-4(1H)-one] is 9.5-fold lower in IC50: 1840 nM for the first, 193 nM for the second. The second is the more potent here.

`NC(=O)c1cnc2ccc(-c3cccnc3-c3ccc(F)c(C4CC4)c3)cn12` [compound 224, 6-(2-(3-Cyclopropyl-4-fluorophenyl)pyridin-3-yl)imidazo[1,2-a]pyridine-3-carboxamide] and `Fc1ccc(-c2ncccc2-c2ccc3nccn3c2)cc1C1CC1` [compound 218, 6-(2-(3-Cyclopropyl-4-fluorophenyl)pyridin-3-yl)imidazo[1,2-a]pyridine] are within 1.5-fold of each other in IC50: 621 nM for the first, 446 nM for the second.

First: Cc1ccc(F)c(-c2ncccc2-c2ccc3ncnn3c2)c1 [compound 748, 6-(2-(2-Fluoro-5-methylphenyl)pyridin-3-yl)-[1,2,4]triazolo[1,5-a]pyridine]
Second: COc1cccc(-c2ncccc2-c2ccc3ncnn3c2)c1 [compound 779, 6-(2-(3-Methoxyphenyl)pyridin-3-yl)-[1,2,4]triazolo[1,5-a]pyridine]
The IC50 of the first is 1.7-fold lower: 447 nM for the first, 761 nM for the second. The first is the more potent here.

Going from `Clc1cccc(-c2ncccc2-c2ccc3ncsc3c2)c1` [compound 668, 6-(2-(3-Chlorophenyl)pyridin-3-yl)benzo[d]thiazole] to `Cc1cccc(-c2ncccc2-c2ccc3ncsc3c2)c1` [Compound 160, 6-(2-m-Tolylpyridin-3-yl)benzo[d]thiazole], the IC50 falls from 313 nM to 84.3 nM (3.7-fold). The second is the more potent here.

Going from `Fc1ccc(-c2ncccc2-c2ccc3ncsc3c2)cc1Cl` [compound 686, 6-(2-(3-Chloro-4-fluorophenyl)pyridin-3-yl)benzo[d]thiazole] to `Fc1ccc(-c2ncccc2-c2ccc3ncccc3c2)cc1Cl` [compound 688, 6-(2-(3-Chloro-4-fluorophenyl)pyridin-3-yl)quinoline], the IC50 rises from 205 nM to 1260 nM (6.1-fold). The first is the more potent here.

`[2H]C([2H])([2H])c1cccc(-c2ncccc2-c2ccn3cncc3c2)c1` [compound 604, 7-(2-(3-(Methyl-d3)phenyl)pyridin-3-yl)imidazo[1,5-a]pyridine] and `Cc1cccc(-c2ncccc2-c2ccc3ccncc3c2)c1` [Compound 210, 7-(2-m-Tolylpyridin-3-yl)isoquinoline] are within 1.5-fold of each other in IC50: 8520 nM for the first, 12700 nM for the second.

`O=c1nc[nH]c2cc(-c3cccnc3-c3cccc(C4CC4)c3)ccc12` [compound 350, 7-(2-(3-cyclopropylphenyl)pyridin-3-yl)quinazolin-4(1H)-one] and `c1cc(-c2ncccc2-c2ccc3nccnc3c2)cc(C2CC2)c1` [compound 541, 6-(2-(3-Cyclopropylphenyl)pyridin-3-yl)quinoxaline] are within 1.5-fold of each other in IC50: 347 nM for the first, 250 nM for the second.

Going from `Clc1ccc(Cl)c(-c2ncccc2-c2ccc3nc[nH]c3c2)c1` [compound 871, 6-(2-(2,5-Dichlorophenyl)pyridin-3-yl)-1H-benzo[d]imidazole] to `Nc1nc2ccc(-c3cccnc3-c3cccc(Cl)c3)nc2s1` [compound 301, 5-(2-(3-Chlorophenyl)pyridin-3-yl)thiazolo[5,4-b]pyridin-2-amine], the IC50 falls from 1830 nM to 345 nM (5.3-fold).

First: Cc1cc(-c2ncccc2-c2ccc3ncnc(OCCN4CCN(C)CC4)c3c2)ccc1F [compound 433, 6-(2-(4-Fluoro-3-methylphenyl)pyridin-3-yl)-4-(2-(4-methylpiperazin-1-yl)ethoxy)quinazoline]
Second: CCN(CC)c1ncnc2ccc(-c3cccnc3-c3ccc(F)c(C)c3)cc12 [compound 397, N,N-Diethyl-6-(2-(4-fluoro-3-methylphenyl)pyridin-3-yl)quinazolin-4-amine]
The IC50 of the first is 33-fold lower: 285 nM for the first, 9410 nM for the second. The first is the more potent here.

First: CCn1ncc2cc(-c3cccnc3-c3cccc(C)c3)ccc21 [Compound 185, 1-Ethyl-5-(2-m-tolylpyridin-3-yl)-1H-indazole]
Second: Cn1cnc2ccc(-c3cccnc3-c3cccc(OC(F)F)c3)cc21 [compound 963, 6-(2-(3-(Difluoromethoxy)phenyl)pyridin-3-yl)-1-methyl-1H-benzo[d]imidazole]
The IC50 of the first is 51-fold higher: 8860 nM for the first, 175 nM for the second. The second is the more potent here.

Going from `COc1cnc(-c2cc(Cl)ccc2F)c(-c2ccn3ncnc3c2)c1` [compound 858, 7-(2-(5-Chloro-2-fluorophenyl)-5-methoxypyridin-3-yl)-[1,2,4]triazolo[1,5-a]pyridine] to `Cc1cnc(-c2cc(Cl)ccc2F)c(-c2ccn3ncnc3c2)c1` [compound 866, 7-(2-(5-Chloro-2-fluorophenyl)-5-methylpyridin-3-yl)-[1,2,4]triazolo[1,5-a]pyridine], the IC50 falls from 2370 nM to 251 nM (9.4-fold). The second is the more potent here.

First: Cc1cc(-c2ncccc2-c2ccc3ncnc(NCc4cccnc4)c3c2)ccc1F [compound 416, 6-(2-(4-Fluoro-3-methylphenyl)pyridin-3-yl)-N-(pyridin-3-ylmethyl)quinazolin-4-amine]
Second: Cc1cc(-c2ncc(NCc3c[nH]c4ncccc34)cc2-c2ccc3ncsc3c2)ccc1F [compound 330, N-((1H-Pyrrolo[2,3-b]pyridin-3-yl)methyl)-5-(benzo[d]thiazol-6-yl)-6-(4-fluoro-3-methylphenyl)pyridin-3-amine]
The IC50 of the first is 11-fold higher: 4860 nM for the first, 456 nM for the second. The second is the more potent here.

First: COc1cc(Nc2nccc(-c3cccnc3-c3ccc(F)c(C)c3)n2)cc(OC)c1OC [compound 903, 4-(2-(4-Fluoro-3-methylphenyl)pyridin-3-yl)-N-(3,4,5-trimethoxyphenyl)pyrimidin-2-amine]
Second: CN(C)c1cnc2ccc(-c3cccnc3-c3cccc(C(F)(F)F)c3)cn12 [compound 554, N,N-Dimethyl-6-(2-(3-(trifluoromethyl)phenyl)pyridin-3-yl)imidazo[1,2-a]pyridin-3-amine]
The IC50 of the first is 1.8-fold lower: 2580 nM for the first, 4680 nM for the second.
